In patent US6331555A, “Treatment of platelet derived growth factor related disorders such as cancers” (priority 1999, dated 2001):
Where two headings read alike, the source gives them in different places.

Assays:
Colo 320DM = test: Tumor cell line growth; assay type: cell-based; settings: Homo sapiens, 96 h, colon, 4 days
Procedure: (§1) The assay measures protein content of acid-fixed cells using the counterion binding dye sulforhodamine B (SRB, Sigma). […] For other cell lines, the cells (2000 cells/well in 100 μL) were introduced into wells immediately after dispensing the drug solutions. After 4 days (37° C., 5% CO2) the monolayers were washed 3 times with PBS and fixed with 200 μL ice-cold 10% TCA (Fisher Scientific), and kept at 4° C. for 60 min. The TCA was removed and the fixed monolayers were washed 5 times with tap water and allowed to dry completely at room temperature on absorbent paper. The cellular protein was stained for 10 min with 100 μL 0.4% SRB dissolved in 1% acetic acid. After 5 washes with tap water, the dye was solubilized in 10 mM Tris base (100 μL per well) and absorbance read at 570 nm on a Dynatech plate reader model MR5000. Growth inhibition data are expressed as a percentage of absorbance detected in control wells which were treated with 0.4% DMSO alone. DMSO controls were not different from cells grown in regular growth medium. IC50 values were determined using a four parameter curve fit function.
(§2) For K562, DlB, L1210, 7TDl, T27A, and Colo320 DM cells, an MTT assay was used to assess cell growth. […] The cells were incubated at 37° C. for 4 days in a humidified 7% CO2 atmosphere. At the end point, […] of MTT (5 mg/mL in PBS, Sigma) was added to each well. The plates were incubated at 37° C. for 4 hr followed by addition of […] of solubilization solution (20% w/v of SDS in 50% N, N-dimethylformamide, pH 4.7) to each well. The plates were incubated overnight in a sealed container with a humidified atmosphere. The absorbance was determined at 570 nm wavelength with a reference wavelength of 630 nm using an ELISA plate reader.

Ovcar3 = test: Tumor cell line growth; assay type: cell-based; settings: Homo sapiens, OVCAR-3, 96 h; ovarian, 4 days
Procedure: as §1, §2

SF767 = test: Tumor cell line growth; assay type: cell-based
Procedure: as §1, §2

spleen cells = test: Normal immune function in naive mice; assay type: in vivo, mouse
Source text: At the indicated times, animals were sacrificed, and the spleens were aseptically removed and placed into sterile medium. Spleens were processed into single cell suspensions by grinding between sterile frosted glass microscope slides. After a single wash to remove tissue debris, the spleen cells were resuspended in a hypotonic ammonium chloride buffer to lyse erythrocytes. Lymphocytes were washed and resuspended to the appropriate concentrations in complete medium, consisting of RPMI plus 10% heat-inactivated FBS, 2 mM glutamine, 50 μM β-mercaptoethanol, and penicillin-streptomycin. The responses of the lymphocytes were examined in the following assays according to accepted procedures (Current Protocols in Immunology. Coligan, J. E., Kruisbeek, A. M., Margulies, D. H., Shevach, E. M., Strober, W. (eds.) John Wiley and Sons, Inc., 1992).
The T-cell mitogen, ConA, and the T-cell independent B-cell mitogen, LPS, were added to 96-well round-bottom wells at the indicated concentrations. Lymphocytes from normal, vehicle-dosed, and drug-dosed animals were added at a final concentration of 2.5×10^5 /well. Cultures were usually set up in triplicate or quadruplicate. The plates were incubated at 37° C. in a humidified atmosphere containing 5% CO2 for the indicated times. Supernatants (approximately 100 μL) were carefully removed from the wells and stored at -80° C. for lymphokine and immunoglobulin analyses. To measure proliferation of the lymphocytes, 1 μCi of ^3 H-thymidine was added to each well, and the plates were incubated for 6 hr. The cultures were harvested onto glass fiber filters, and the incorporated radioactivity was quantitated by liquid scintillation counting (Betaplate, Wallac).
Lymphocytes from normal, vehicle-dosed, and drug-dosed animals were plated at 2.5×10^5 /well in round-bottom 96-well plates. Stimulator cells were then added at the same cell concentration. The stimulator cells consisted of syngeneic or allogeneic lymphocytes which had been treated with 50 μg/mL of mitomycin C for 30 min prior to the assay. The plates were incubated for 3 to 4 days, at which time supernatants were harvested and the cultures were pulsed as described for the mitogen assays.
Supernatants from mitogen and MLR cultures were assayed for IL-2 and IL-6 content by the ability to support the growth of factor-dependent cell lines. HT-2 cells (10^4 /well, IL-2-dependent) and 7TD1 cells (2×10^3 /well, IL-6-dependent) were plated in 96-well flat-bottom plates, in 50 μL/well. Supernatants were added in 50 μL/well, and the plates were incubated overnight (HT-2) or four days (7TD1). Cellular proliferation was determined in the MTT colorimetric assay (Appendix 3.1).
Flat bottom 96-well EIA plates were coated with goat anti-mouse Ig antibodies (Southern Biotechnology) overnight at 4° C. The plates were blocked by the addition of PBS+1% BSA. After washing with PBS, supernatants from murine mitogen and MLR cultures were added and incubated at room temperature for 1 hr. The plates were washed with PBS, then HRP-labeled goat anti-mouse Ig antibodies were added and incubated at room temperature for 1 hr. The plates were washed and developed by the addition of substrate (ABTS).
The animals were sacrificed and their spleen cells were assayed in vitro for responses to ConA (a T-cell mitogen), LPS (a T-cell independent B-cell mitogen), and alloantigens (C3H/HeJ spleen cells) as described in Appendix 5. The IL-2, IL-6, Ig content and cellular proliferation were measured after 48 hr (mitogens) or 72 hr (alloantigens).

tumor xenografts = test: Xenografts of various tumor types in mice; assay type: in vivo
Procedure: Cell lines were grown in appropriate medium (see Appendix 1). Cells were harvested at or near confluency with 0.05% Trypsin-EDTA and pelleted at 450×g for 10 min. Pellets were resuspended in sterile PBS or media (without FBS) to a particular concentration and the cells were implanted into the hindflank of mice. Tumor growth was measured over 3 to 6 weeks using venier calipers. Tumor volumes were calculated as a product of length×width×height unless otherwise indicated. P values were calculated using the Students' t-test.

## Cc1oncc1C(=O)Nc1ccc(C(F)(F)F)cc1 [Compound A10, 5-methylisoxazole-4 carboxylic acid-(4-trifluromethyl)-anilide]
Colo 320DM
  IC50: 34 µM
Ovcar3
  IC50: > 100 µM
SF767; SF767, 96 h, glioma, 4 days, read-out: IC50
  IC50: 87 µM
SF767; SF767, PDGF-R expression -, read-out: SRB
  IC50: 100 µM
Spleen cells; Allo, d7, vs vehicle
  3H-thymidine uptake: 0
  IL-2 production: 0
  IL-6 production: 0
  Ig production: 0
Spleen cells; Allo, d21, vs vehicle
  3H-thymidine uptake: 0
  IL-2 production: 0
  IL-6 production: 0
  Ig production: 0
Spleen cells; ConA, d7, vs vehicle
  3H-thymidine uptake: 0
  IL-2 production: 0
  IL-6 production: ++
  Ig production: 0
Spleen cells; ConA, d21, vs vehicle
  3H-thymidine uptake: 0
  IL-2 production: 0
  IL-6 production: 0
  Ig production: 0
Spleen cells; LPS, d7, vs vehicle
  3H-thymidine uptake: 0
  IL-2 production: 0
  IL-6 production: 0
  Ig production: +
Spleen cells; LPS, d21, vs vehicle
  3H-thymidine uptake: 0
  IL-2 production: 0
  IL-6 production: 0
  Ig production: +/-
Tumor xenografts; 12 to 20 mg/kg/day, glioma, SKOV3T, PA-1, A375, PC-3, Calu-6, D1B, L1210
  growth of xenografts: effectively inhibited the growth
Tumor xenografts; xenografted gliomas in mice, some animals, relative to untreated controls
  inhibition of glioma growth: greater than 95%
